Results on six molecules are retold here after patent US20190336537A1, “GENERATING ATRIAL AND VENTRICULAR CARDIOMYOCYTE LINEAGES FROM HUMAN PLURIPOTENT STEM CELLS” (UNIVERSITY HEALTH NETWORK, priority 2016, published 2019).

For test [1], the system named is HES3 NKX2-5:GFP reporter hESC line derived cardiomyocytes. Put plainly: qRT-PCR analysis of atrial and ventricular gene expression in day 20 hPSC-derived cardiomyocytes. The conditions noted are these: receptor-specific agonist added in place of RA to day 3 cultures. Type of test: cell-based, human. Background: In qPCR the cycle at which signal appears reflects the starting amount.

Test [2] concerns HES2 human embryonic stem cell derived EBs. Description: ROH/RA response of HES2-derived EBs (day 20 flow cytometry and qRT-PCR). It counts as cell-based. As to conditions: treated days 3 to 5. An excerpt: (§1) To determine if the approach for optimizing atrial and ventricular differentiation based on ALDH activity and CD235a expression is broadly applicable, we next used it to generate these cardiomyocyte populations from the HES2 human embryonic stem cell and the MSC-iPS1 induced pluripotent stem cell lines. Titration studies identified 5B/2A and 5B/6A as optimal for atrial and ventricular inductions, respectively, for HES2 cells and 4B/4A as optimal for ventricular induction for MSCiPSC1 cells (FIGS. 7A, 7B, 7E, and 7F; Mendeley http://dx.doi.org/10.17632/7z7d5v2c3w.1). Optimization of atrial induction from the MSC-iPSC1 cells was more challenging, as all cytokine combinations promoted the development of a substantial CD235a+ population. One interpretation of these patterns is that the MSC-iPS1 cells have a high level of endogenous Nodal/Activin A signaling, resulting in the development of some CD235a+ cells under all conditions. To test this, we added the Nodal/Activin A/transforming growth factor beta (TGF-beta) inhibitor SB-431542 (SB) from days 3 to 5 to cells induced with 4B/1A.
(§2) For cardiac differentiation, we used a modified version of our embryoid body (EB)-based protocol (Kattman et al., 2011). hPSC populations at 80%-90% confluence were dissociated into single cells (TrypLE, ThermoFisher) and re-aggregated to form EBs in StemPro-34 media (ThermoFisher) containing penicillin/streptomycin (1%, ThermoFisher), L-glutamine (2 mM, ThermoFisher), trans-ferrin (150 μg/ml, ROCHE), ascorbic acid (50 μg/ml, Sigma), and monothioglycerol (50 μg/ml, Sigma), ROCK inhibitor Y-27632 (10 μM, TOCRIS) and rhBMP4 (1 ng/ml, R&D) for 18 h on an orbital shaker. At day 1, the EBs were transferred to mesoderm induction media consisting of StemPro-34 with above supplements (-ROCK inhibitor Y-27632) and rhBMP4, rhActivinA (R&D) and rhbFGF (5 ng/ml, R&D) at the indicated concentrations. At day 3, the EBs were harvested, washed with IMDM and transferred to cardiac mesoderm specification media consisting of StemPro-34, the Wnt inhibitor IWP2 (1 μM, TOCRIS) and rhVEGF (10 ng/mL, R&D). At day 5, the EBs were transferred to Stem Pro-34 with rhVEGF (5 ng/ml) for another 7 days and then to Stem Pro-34 media without additional cytokines for further 8 days. At day 20, HES3-NKX2-5gfp/w-derived cardiomyocytes were analyzed and isolated based on the expression of NKX2-5:GFP and SIRPa and a lack of CD90. Cardiomyocytes generated from non-transgenic hPSC lines were analyzed and isolated as SIRPa+CD90− populations. Media was changed every 3 days. Cultures were incubated in a low oxygen environment (5% CO2, 5% O2, 90% N2) for first 12 days and a normoxic environment (5% CO2) for the following 8 days in total of 20 days. […]
On the technique in general: A flow cytometer gives signals particle by particle.

For test [3], the system named is MSC-iPS1 induced pluripotent stem cell line derived EBs. Put plainly: ROH/RA response of MSC-iPS1-derived EBs (day 20 flow cytometry and qRT-PCR). Type of test: cell-based, human. As to conditions: treated days 3 to 5.
Excerpt: as §1, §2

The test system of test [4] is HES3 NKX2-5:GFP hESC-derived mesoderm. Put plainly: Specification of mesoderm populations to an atrial fate by ROH or RA (day 20 flow cytometry and qRT-PCR). Type of test: cell-based, human. As to conditions: for atrial specification (MLC2V+, IRX4, KCNJ3, NR2F2): treated days 3-5. The procedure: To determine if the ALDH^+ cells can synthesize RA, the ALDH^+PDGFRalpha^+ and ALDH^− PDGFRalpha^+ fractions were isolated from the day 4 3B/2A-induced population, and the cells were cultured as aggregates in retinol (ROH), RA, or DMSO (control) for 24 hr (FIGS. 3A and 3B). ALDH1A2 expression segregated to the ALDH^+ fraction, confirming the validity of aldefluor-based sorting strategy for isolating RALDH2-expressing cells (FIG. 3C).
(§3) For cardiac differentiation, we used a modified version of our embryoid body (EB)-based protocol (Kattman et al., 2011). hPSC populations at 80%-90% confluence were dissociated into single cells (TrypLE, ThermoFisher) and re-aggregated to form EBs in StemPro-34 media (ThermoFisher) containing penicillin/streptomycin (1%, ThermoFisher), L-glutamine (2 mM, ThermoFisher), trans-ferrin (150 μg/ml, ROCHE), ascorbic acid (50 μg/ml, Sigma), and monothioglycerol (50 μg/ml, Sigma), ROCK inhibitor Y-27632 (10 μM, TOCRIS) and rhBMP4 (1 ng/ml, R&D) for 18 h on an orbital shaker. At day 1, the EBs were transferred to mesoderm induction media consisting of StemPro-34 with above supplements (-ROCK inhibitor Y-27632) and rhBMP4, rhActivinA (R&D) and rhbFGF (5 ng/ml, R&D) at the indicated concentrations. At day 3, the EBs were harvested, washed with IMDM and transferred to cardiac mesoderm specification media consisting of StemPro-34, the Wnt inhibitor IWP2 (1 μM, TOCRIS) and rhVEGF (10 ng/mL, R&D). At day 5, the EBs were transferred to Stem Pro-34 with rhVEGF (5 ng/ml) for another 7 days and then to Stem Pro-34 media without additional cytokines for further 8 days. At day 20, HES3-NKX2-5gfp/w-derived cardiomyocytes were analyzed and isolated based on the expression of NKX2-5:GFP and SIRPa and a lack of CD90. Cardiomyocytes generated from non-transgenic hPSC lines were analyzed and isolated as SIRPa+CD90− populations. Media was changed every 3 days. Cultures were incubated in a low oxygen environment (5% CO2, 5% O2, 90% N2) for first 12 days and a normoxic environment (5% CO2) for the following 8 days in total of 20 days. The EBs were cultured in ultra-low attachment 6-well dishes (Corning) throughout the differentiation for maintaining suspension cultures.
Following optimization, either ATRA (0.5 μM, Sigma) or retinol (2 μM, Sigma) was included in the cardiac mesoderm specification media from days 3-5 for the generation of atrial cardiomyocytes.
(§4) Day 2-6 EBs were dissociated with TrypLE for 2-4 min at room temperature (RT). Day 20 EBs were dissociated by incubation in Collagenase type 2 (0.5 mg/ml, Worthington) in HANKs buffer overnight at RT followed by TrypLE treatment as described above. The following antibodies were used for staining: anti-PDGFRa-PE (R&D Systems, 3:50), anti-CD235a-APC (BD PharMingen, 1:100), antiSIRPa-PeCy7 (Biolegend, 1:1000), anti-CD90-APC (BD PharMingen, 1:1000), anticardiac isoform of CTNT (ThermoFisher Scientific, 1:2000), or anti-myosin light chain 2 (Abcam, 1:1000). For unconjugated primary antibodies, the following secondary antibodies were used for detection: goat anti-mouse IgG-APC (BD Pharmigen, 1:250), or donkey anti-rabbit IgG-PE (Jackson ImmunoResearch, 1:250). Detailed antibody information is described in Table 2.
The Aldefluor™ assay (STEMCELL Technologies) was performed according to the instruction provided by the manufacturer. Briefly, day 2-6 EBs were dissociated as described above. […] Stained cells were analyzed as described above. […]

Test [5] has the same test system. The description is as above. Type of test: cell-based, human. As to conditions: day 4, 5B/4A induced.
In test [6] the test system is HES3 NKX2-5:GFP hESC-derived day 20 EB populations. Description: Flow cytometric and immunostaining analyses of day 20 EB populations (CTNT, MLC2V, NKX2-5, COUPTFII). Type of test: cell-based, human. As for the experimental part:
as §3, §4
For cell-surface marker analyses, cells were stained for 30 min at 4 degrees C. in FACS buffer consisting of PBS with 5% fetal calf serum (FCS) (Wisent) and 0.02% sodium azide. For intracellular staining, cells were fixed for 15 min at 4 degrees C. with 4% PFA in PBS followed by permeabilization using 90% methanol for 20 min at 4 degrees C. Cells were washed with PBS containing 0.5% BSA (Sigma) and stained with unconjugated primary antibodies in FACS buffer overnight at 4 degrees C. Stained cells were washed with PBS with 0.5% BSA and stained with secondary antibodies in FACS buffer for 1 h at 4 degrees C.
Stained cells were analyzed using the LSR II Flow cytometer (BD). For cell sorting, stained cells were kept in IMDM with 0.5% FCS and sorted using Influx (BD), FACSAriall (BD), MoFlo-XDP (BD) and FACSAria Fusion (BD) at the Sickids/UHN flow cytometry facility. Data were analyzed using FlowJo software (Tree Star).
Day 20 EBs were dissociated as described above and the cells plated onto 12 mm cover glasses (VWR) pre-coated with matrigel (25% v/v, BD). Cells were cultured for 3-5 days to enable the formation of adherent cell monolayers. Cells were fixed with
4% PFA in PBS for 10 min at room temperature and permeabilized with PBS containing 0.3% TritonX, 200 mM Glycine (Sigma) for 20 min at RT. Cells were blocked with PBS containing 10% FCS, 0.1% TritonX, and 2% BSA. […]

The test system of test [7] is hPSC-derived day 2-6 EB mesoderm. Description: Aldefluor assay and flow cytometry of mesoderm (ALDH activity, PDGFRalpha, CD235a). Type of test: cell-based, human. The procedure: as §4
The Aldefluor™ assay (STEMCELL Technologies) was performed according to the instruction provided by the manufacturer. Briefly, day 2-6 EBs were dissociated as described above. Cells were stained at a concentration of 2×10^6 cells/ml in the aldefluor assay buffer containing 0.1% BSA and BAAA substrate (0.12 mg/ml) for 60 min at 37 degrees C. The aldehyde dehydrogenase inhibitor DEAB ([…]) was added to the negative control sample. Cells were washed with cold media consisting of IMDM with 5% FCS and 10% aldefluor assay buffer. Cells were then stained with antibodies to cell surface markers at the concentrations indicated above in cold wash media for additional 20 min at 4 degrees C. Stained cells were analyzed as described above. During analyses, the cells were kept in cold wash media. For cell sorting, FCS was replaced with KnockOut™ serum replacement (ThermoFisher) to avoid any impact of serum-contained cy-tokines on the cell differentiations. Cells were maintained in StemPro-34 containing 10% aldefluor assay buffer throughout the sorting procedure. The sorted cells were collected and re-aggregated in StemPro-34 containing ROCK inhibitor (10 μM), IWP2 (0.5 μM) and rhVEGF (5 ng/ml).

Setting [8] is: reducing BMP4 from 10 to 3 ng/mL, Activin A 2 ng/mL.
Where [9] appears, read: increasing Activin A from 2 to 12 ng/ml, BMP4 10 ng/mL.
Setting [10] is: reducing Activin A, constant BMP4 (10 ng/mL).

As for `CCCCCCCCc1ccc(-c2ccc(C(=O)O)cc2)cc1` [AC55649], the “MYL2 expression in day 20 CTNT+ populations” value (“MYL2 expression” for short) in test [1] was “reduction”.

For `CC1(C)CCC(C)(C)c2cc(C(=O)Nc3ccc(C(=O)O)cc3)ccc21` [AM580], the “MYL2 expression” value in test [1] is “reduction”.

`O=C(O)c1ccc2cc(-c3ccc(O)c(C45CC6CC(CC(C6)C4)C5)c3)ccc2c1` [CD437]: the “MYL2 expression” value in test [1] is listed as “reduction”.

Take `CC1=C(/C=C/C(C)=C/C=C/C(C)=C/CO)C(C)(C)CCC1` [ROH, retinol]: the “response of ALDH+ mesoderm (atrial expression profile)” value in test [2] (HES2, 5B/2A induced) is “responded to both ROH and RA”; in test [3] (MSC-iPS1, 4B/1A+SB induced), “responded to both ROH and RA”. Moreover, the “response of CD235a+ mesoderm (MLC2V content, MYL2, IRX4, KCNJ3, NR2F2)” value in test [2] (HES2, 5B/6A induced) was “Neither CD235a+ mesoderm population responded”; in test [3] (MSC-iPS1, 4B/4A induced), “Neither CD235a+ mesoderm population responded”. Also, the “atrial specification (MLC2V+, IRX4, KCNJ3, NR2F2)” value in test [4] (3B/2A-induced EBs) is “responded to ROH and generated an atrial-like cardiomyocyte population”; in test [4] (5B/12A-induced EBs), “did not respond”. Besides, the “atrial specification (MLC2V+ frequency, IRX4, KCNJ3)” value in test [4] (ALDH+PDGFRalpha+ fraction, day 4, 3B/2A induced, 24 hr treatment) was “generated an atrial-like cardiomyocyte population”. Besides, the “atrial specification (MLC2V+, IRX4, NPPA, KCNJ3, NR2F2)” value is given as “no response” in test [5] (CD235a+ALDH− fraction) and “gave rise to an atrial-like cardio-myocyte population” in test [5] (CD235a−ALDH+ fraction).

B1: BMP4: Bone Morphogenetic Protein 4, recombinant human (R&D) (protein, UniProt P12644 293-408, looked up)
Bone morphogenetic protein 4: SPKHHSQRARKKNKNCRRHSLYVDFSDVGWNDWIVAPPGYQAFYCHGDCPFPLADHLNSTNHAIVQTLVNSVNSSIPKACCVPTELSAISMLYLDEYDKVVLKNYQEMVVEGCGCR
Consider B1, for which the “frequency of MLC2V+CTNT+ cells at day 20” value in test [6] (BMP4 20 ng/mL, Activin A 12 ng/mL) is “lowest frequency”. For the same molecule, the “frequency of CTNT+ cells at day 20” value in test [6] (setting [8]) is given as “increase the frequency”. In addition, the “size of the CD235a+ population” value in test [7] (BMP4 3-20 ng/mL, Activin A 12 ng/mL) is recorded as “little impact”. In test [7] (setting [8]), the “size of the ALDH+PDGFRalpha+ population” value was “did not influence”.

B2: Activin A: Recombinant human ActivinA (R&D), activates nodal signal transduction (protein, UniProt P08476 311-426, looked up)
Inhibin beta A chain: GLECDGKVNICCKKQFFVSFKDIGWNDWIIAPSGYHANYCEGECPSHIAGTSGSSLSFHSTVINHYRMRGHSPFANLKSCCVPTKLRPMSMLYYDDGQNIIKKDIQNMIVEECGCS
modifications: Inhibin beta A chain
As for B2, the “proportion of MLC2V+CTNT+ cells” value in test [6] (setting [9]) is listed as “increase in the proportion”. Moreover, the “proportion of CTNT+ cardiomyocytes generated” value in test [6] (setting [10]) is listed as “decrease”. In addition, in test [7] (setting [9]), the “ALDH+ population” value was “elimination” and the “size of the day 4 CD235a+ population” value is recorded as “increase in the size”. In addition, the “size of the ALDH+PDGFRalpha+ population at day 4” value in test [7] (setting [10]) is given as “substantial increase”.
